Experimental data: PMC11702115 (BMC Biology, 2025)

Legend:
OfurIR75/OfurIR8a = OfurIR75/OfurIR8a (Ostrinia furnacalis, UniProt A0A0F7QIG0); assay: two-electrode voltage clamp, Xenopus oocytes; assay type: cell-based; conditions: agonist, IR8a co-expressed, 10 uM screen, -80 mV, pH 7.6
HarmOR52 (with HarmOrco) = target: T1, HarmOR52 (with HarmOrco) (Helicoverpa armigera, UniProt A0A7T3KAH2); assay: two-electrode voltage clamp, Xenopus oocytes; assay type: cell-based; conditions: agonist; Orco co-expressed; 100 uM screen, dose series; -80 mV, pH 7.6
T1 sequence (A0A7T3KAH2 1-419): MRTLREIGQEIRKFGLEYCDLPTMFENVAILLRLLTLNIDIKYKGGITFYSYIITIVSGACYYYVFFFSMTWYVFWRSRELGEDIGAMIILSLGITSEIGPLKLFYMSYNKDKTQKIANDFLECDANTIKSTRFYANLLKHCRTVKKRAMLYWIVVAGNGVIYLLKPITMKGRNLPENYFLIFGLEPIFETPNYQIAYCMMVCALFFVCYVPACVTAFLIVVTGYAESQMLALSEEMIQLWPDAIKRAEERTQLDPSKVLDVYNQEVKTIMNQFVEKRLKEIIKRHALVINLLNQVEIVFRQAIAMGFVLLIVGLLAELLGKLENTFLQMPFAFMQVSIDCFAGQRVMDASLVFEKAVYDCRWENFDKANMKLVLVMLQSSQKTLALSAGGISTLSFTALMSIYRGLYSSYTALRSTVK

Chain of OfurIR75/OfurIR8a (A0A0F7QIG0 19-626): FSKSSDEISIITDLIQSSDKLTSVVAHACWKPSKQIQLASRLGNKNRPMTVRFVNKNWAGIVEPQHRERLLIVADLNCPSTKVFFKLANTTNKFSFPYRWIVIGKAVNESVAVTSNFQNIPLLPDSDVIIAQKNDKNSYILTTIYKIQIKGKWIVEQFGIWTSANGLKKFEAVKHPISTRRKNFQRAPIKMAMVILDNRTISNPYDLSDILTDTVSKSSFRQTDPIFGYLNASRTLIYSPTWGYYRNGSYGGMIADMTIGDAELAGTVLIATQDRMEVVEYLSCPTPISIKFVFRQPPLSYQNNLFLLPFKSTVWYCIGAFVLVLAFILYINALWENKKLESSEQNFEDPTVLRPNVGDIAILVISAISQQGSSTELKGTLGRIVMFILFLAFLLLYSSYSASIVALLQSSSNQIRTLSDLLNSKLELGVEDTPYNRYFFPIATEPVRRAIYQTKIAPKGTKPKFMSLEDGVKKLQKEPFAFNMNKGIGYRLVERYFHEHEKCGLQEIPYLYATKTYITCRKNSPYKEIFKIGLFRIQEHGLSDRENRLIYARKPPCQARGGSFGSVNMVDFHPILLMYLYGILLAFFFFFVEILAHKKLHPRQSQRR
Chain of OfurIR75/OfurIR8a (A0A0F7QED2 20-902 partner): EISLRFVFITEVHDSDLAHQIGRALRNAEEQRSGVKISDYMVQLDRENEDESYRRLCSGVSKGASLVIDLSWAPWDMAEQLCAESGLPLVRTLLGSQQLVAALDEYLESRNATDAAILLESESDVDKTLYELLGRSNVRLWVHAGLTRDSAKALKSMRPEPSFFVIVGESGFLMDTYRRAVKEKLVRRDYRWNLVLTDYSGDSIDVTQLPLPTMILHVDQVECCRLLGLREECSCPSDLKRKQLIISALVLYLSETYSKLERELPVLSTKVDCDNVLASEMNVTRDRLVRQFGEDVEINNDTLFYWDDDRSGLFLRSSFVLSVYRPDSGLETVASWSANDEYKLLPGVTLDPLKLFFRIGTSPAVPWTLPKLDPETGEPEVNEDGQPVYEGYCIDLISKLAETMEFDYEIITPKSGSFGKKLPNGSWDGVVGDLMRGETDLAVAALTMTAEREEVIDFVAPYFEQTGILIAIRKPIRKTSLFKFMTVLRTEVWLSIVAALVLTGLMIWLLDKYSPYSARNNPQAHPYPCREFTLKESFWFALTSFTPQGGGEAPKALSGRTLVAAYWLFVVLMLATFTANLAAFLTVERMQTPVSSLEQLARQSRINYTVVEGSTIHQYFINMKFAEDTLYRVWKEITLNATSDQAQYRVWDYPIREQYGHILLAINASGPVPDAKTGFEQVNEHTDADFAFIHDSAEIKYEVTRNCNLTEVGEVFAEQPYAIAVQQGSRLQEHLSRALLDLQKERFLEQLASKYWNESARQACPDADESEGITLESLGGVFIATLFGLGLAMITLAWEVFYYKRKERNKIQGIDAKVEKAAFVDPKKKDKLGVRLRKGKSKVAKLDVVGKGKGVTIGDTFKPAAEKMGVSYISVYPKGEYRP

| SMILES | two-electrode voltage clamp, Xenopus oocytes (OfurIR75/OfurIR8a; dose series) | two-electrode voltage clamp, Xenopus oocytes (HarmOR52 (with HarmOrco)) | two-electrode voltage clamp, Xenopus oocytes (OfurIR75/OfurIR8a) |
| --- | --- | --- | --- |
| CCCCCC(=O)O [hexanoic acid] | OfurIR75/OfurIR8a responded strongly with similar magnitudes to pentanoic acid and hexanoic acid |  |  |
| CCCCCO [pentanol] |  | dose-dependent, with a higher sensitivity to isoamyl alcohol compared to pentanol |  |
| CCCCCCCC(=O)O [octanoic acid] |  |  | Weaker responses were elicited by heptanoic acid and octanoic acid |
| CC(C)CCO [isoamyl alcohol] |  | receptors from this clade exhibited similar response profiles, with isoamyl alcohol as the primary ligand |  |
| CCCCCCC(=O)O [heptanoic acid] |  |  | Weaker responses were elicited by heptanoic acid and octanoic acid |
| CCCCC(=O)O [pentanoic acid] | OfurIR75/OfurIR8a responded strongly with similar magnitudes to pentanoic acid and hexanoic acid |  |  |
